Data taken from US10479793B2, “Imidazopyridazine compounds useful as modulators of IL-12, IL-23 and/or IFN alpha responses” (BRISTOL-MYERS SQUIBB COMPANY, priority 2015, dated 2019).
Like-named read-outs stand apart in the source and are kept apart here.

How the values were obtained:
[1] = molecular target: T1, recombinantly expressed His-tagged protein corresponding to amino acids 575-869 of human Tyk2 (Homo sapiens, UniProt P29597); experiment: Probe displacement assay (scintillation proximity, tritiated probe); format: binding; details: His-tagged Tyk2 (575-869) 2.5 nM, 40 nM radiolabeled probe, 30 minutes at room temperature
T1 construct: made in house
Description: The preparation of radiolabeled probe, (R)—N-(1-(3-(8-methyl-5-(methylamino)-8H-imidazo[4,5-d]thiazolo[5,4-b]pyridin-2-yl)phenyl)ethyl)-2-([^3H]methylsulfonyl)benzamide, was performed as described below: […]

[2] = test system: IL-23 stimulated Kit225 T cells with a stably-integrated STAT-dependent luciferase reporter; experiment: Kit225 T cell assay, IL-23 stimulated STAT-dependent luciferase reporter; format: cell-based, human
Description: (§1) Kit225 T cells with a stably-integrated STAT-dependent luciferase reporter were plated in RPMI (GIBCO) containing 10% heat-inactivated FBS (GIBCO) and 100 U/mL PenStrep (GIBCO). The cells were then stimulated with either 20 ng/mL human recombinant IL-23 or 200 U/mL human recombinant IFNα (PBL InterferonSource) for 5-6 hours. Luciferase expression was measured using the STEADY-GLO Luciferase Assay System (PROMEGA) according to the manufacturer's instructions.

[3] = test system: IFNα stimulated Kit225 T cells with a stably-integrated STAT-dependent luciferase reporter; experiment: Kit225 T cell assay, IFNα stimulated STAT-dependent luciferase reporter; format: cell-based, human
Description: as §1

[4] = KIT225, 20 ng/mL human recombinant IL-23, 5-6 hours, luciferase, read-out: IL-23 Kit225 Reporter, (IC50)
[5] = KIT225, 200 U/mL human recombinant IFNα, 5-6 hours, luciferase, read-out: IFNa Kit225 Reporter, (IC50)
[6] = Homo sapiens, KIT225, 20 ng/mL human recombinant IL-23, 5-6 hours, luciferase, read-out: IL-23 Kit225 Reporter, (IC50)
[7] = Homo sapiens, KIT225, 200 U/mL human recombinant IFNα, 5-6 hours, luciferase, read-out: IFNa Kit225 Reporter, (IC50)
[8] = Homo sapiens, KIT225, read-out: IFNa Kit225 Reporter, (IC50, uM)
[9] = Homo sapiens, KIT225, read-out: IL-23 Kit225 Reporter, (IC50, uM)

T1 sequence (P29597 with tags, fused parts or gaps): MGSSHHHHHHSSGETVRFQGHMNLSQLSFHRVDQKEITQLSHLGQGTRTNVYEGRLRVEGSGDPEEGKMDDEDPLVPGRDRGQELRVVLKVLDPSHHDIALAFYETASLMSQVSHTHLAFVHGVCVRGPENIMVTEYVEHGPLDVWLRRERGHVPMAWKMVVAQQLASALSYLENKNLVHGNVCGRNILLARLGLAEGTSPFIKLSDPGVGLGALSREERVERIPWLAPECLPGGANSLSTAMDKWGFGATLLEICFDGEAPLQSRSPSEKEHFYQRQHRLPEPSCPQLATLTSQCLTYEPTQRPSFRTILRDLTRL

Row | EC50 [1] [nM] | IC50 [2, 4] [µM] | IC50 [3, 5] [µM] | IC50 [2, 6] [µM] | IC50 [3, 7] [µM] | Structure (SMILES) | IC50 [3, 8] [µM] | IC50 [2, 9] [µM]
1 | 20 | 0.56 | 0.4 |  |  | CNc1cc(Nc2cc(F)cc(F)c2)nn2c(C(=O)NCC(C)(C)CO)cnc12 [Example 15] |  | 
2 | 6.85 |  |  | 0.81 | 0.32 | CNc1cc(Nc2cc(F)cc(C(F)(F)F)c2)nn2c(C(=O)NC3CCC3)cnc12 [Example 4] |  | 
3 | 80 | 2.38 | 3.62 |  |  | CCCCCNc1cc(Nc2cc(C)cc(C)c2)nn2c(C(N)=O)cnc12 [Example 55] |  | 
4 | 250 |  |  |  | 3.3 | CNc1cc(Nc2cc(C)cc(C)c2)nn2c(C(=O)N3CC(O)C3)cnc12 [Example 7] |  | 
5 | 7.03 | 0.37 | 0.26 |  |  | CNc1cc(Nc2cc(F)cc(F)c2F)nn2c(C(=O)NCC(C)(C)O)cnc12 [Example 14] |  | 
6 | 7.75 | 0.28 | 0.14 |  |  | CNc1nc(Nc2cc(C)cc(F)c2)nn2c(C(N)=O)cnc12 [Example 73] |  | 
7 | 7.26 | 0.27 | 0.23 |  |  | CNc1cc(Nc2cc(F)cc(F)c2OC)nn2c(C(=O)NCC(C)(C)O)cnc12 [Example 81] |  | 
8 | 5.76 | 0.17 | 0.06 |  |  | CNc1cc(Nc2cc(F)cc(F)c2OC)nn2c(C(N)=O)cnc12 [Example 83] |  | 
9 | 30 | 0.39 | 0.21 |  |  | CNc1cc(Nc2c(F)c(F)cc(F)c2F)nn2c(C(=O)NCC(C)(C)O)cnc12 [Example 21] |  | 
10 | 200 | 9.72 | 12.4 |  |  | Cc1cc(C)cc(Nc2cc(NCC(C)C)c3ncc(C(N)=O)n3n2)c1 [Example 53] |  | 
11 | 70 | 2.32 | 1.28 |  |  | Cc1cc(C)cc(Nc2cc(NCCCN(C)C)c3ncc(C(N)=O)n3n2)c1 [Example 50] |  | 
12 | 10 | 0.7 | 0.73 |  |  | Cc1cc(C)cc(Nc2cc(N)c3ncc(C(N)=O)n3n2)c1 [Example 67] |  | 
13 | 4.83 | 0.15 | 0.12 |  |  | CNc1cc(Nc2ccccc2OC)nn2c(C(=O)NCC(C)(C)O)cnc12 [Example 80] |  | 
14 | 130 | 0.58 | 2.58 |  |  | CNc1cc(Nc2cccnc2-n2cccn2)nn2c(C(=O)NCC(C)(C)O)cnc12 [Example 31] |  | 
15 | 70 | 3.74 | 2.9 |  |  | Cc1cc(C)cc(Nc2cc(NCC3CC3)c3ncc(C(N)=O)n3n2)c1 [Example 51] |  | 
16 | 5.91 |  |  | 0.25 | 0.17 | CNc1cc(Nc2cc(C)cc(F)c2)nn2c(C(=O)NCC(C)(C)O)cnc12 [Example 9] |  | 
17 | 7.62 | 0.75 |  |  |  | CNc1cc(Nc2cccc(-c3ccc(C(F)(F)F)cc3F)c2)nn2c(C(=O)NC[C@@](C)(O)CO)cnc12 [Example 113] |  | 

The next lines start with the molecule.

Row | Structure (SMILES) | EC50 [1] [nM] | IC50 [2, 4] [µM] | IC50 [3, 5] [µM] | IC50 [2, 6] [µM] | IC50 [3, 7] [µM] | IC50 [3, 8] [µM] | IC50 [2, 9] [µM]
18 | CNc1cc(Nc2cccc(-c3ccc(C(F)(F)F)cc3F)c2)nn2c(C(=O)NC3CC3)cnc12 [Example 116] | 65.5 | 1.1 | 1.2 |  |  |  | 
19 | CNc1cc(Nc2cccc(-c3ccccc3)n2)nn2c(C(=O)NC3CC3)cnc12 [Example 86] | 20 |  |  | 0.29 | 0.3 |  | 
20 | CNc1nc(Nc2ccccc2OC)nn2c(C(N)=O)cnc12 [Example 74] | 10 | 0.3 | 0.2 |  |  |  | 
21 | CNc1cc(Nc2cncc(OC)c2)nn2c(C(=O)NC3CC3)cnc12 [Example 93] | 10 |  |  | 1.1 | 0.41 |  | 
22 | CNc1cc(Nc2ccccn2)nn2c(C(=O)N[C@@H]3C[C@@H]3F)cnc12 [Example 22] | 5.46 |  |  | 0.25 | 0.18 |  | 
23 | CNc1cc(Nc2cc(F)ccc2F)nn2c(C(N)=O)cnc12 [Example 6] | 4.21 | 0.12 | 0.09 |  |  |  | 
24 | CNc1cc(Nc2cc(C)cc(C)c2)nn2c(C(=O)NC3CC3)cnc12 [Example 114] |  |  |  |  |  | 0.1 | 
25 | CNc1cc(N2CCc3ccccc32)nn2c(C(=O)NC3CC3)cnc12 [Example 78] | 8.17 | 0.18 | 0.07 |  |  |  | 
26 | Cc1cc(C)cc(Nc2cc(NCCN(C)C)c3ncc(C(N)=O)n3n2)c1 [Example 58] | 80 |  |  |  |  | 2.96 | 1.55
27 | CNc1cc(Nc2ccccc2OC)nn2c(C(=O)NC3CC3)cnc12 [Example 77] | 4.02 |  |  | 0.03 | 0.01 |  | 
28 | Cc1cc(F)cc(Nc2ccc3ncc(C(=O)NC4CC4)n3n2)c1 [Example 68] | 2.26 |  |  | 0.95 | 0.86 |  | 
29 | CNc1cc(Nc2cccnc2F)nn2c(C(=O)NC3CC3)cnc12 [Example 95] | 20 |  |  | 0.37 | 0.27 |  | 
30 | CNc1cc(Nc2cccc(-n3ccc(C(F)(F)F)n3)n2)nn2c(C(=O)NC3CC3)cnc12 [Example 89] | 10 | 0.39 | 0.44 |  |  |  | 
31 | CNc1cc(Nc2cc(C)cc(F)c2)nn2c(C(=O)N3CCC3)cnc12 [Example 3] | 60 |  |  |  |  | 1.92 | 2.82
32 | CNc1cc(Nc2cccnc2-n2cccn2)nn2c(C(=O)N[C@@H](C)CO)cnc12 [Example 32] | 50 | 0.54 | 0.31 |  |  |  | 
33 | CNc1cc(Nc2cccc(-c3ccc(OC(F)(F)F)cc3)n2)nn2c(C(=O)NC3(C#N)CC3)cnc12 [Example 23] | 40 | 0.42 | 0.66 |  |  |  | 
34 | CNc1cc(Nc2c(OC)ccc(F)c2F)nn2c(C(=O)NC3CC3)cnc12 [Example 75] | 2.09 |  |  | 0.1 | 0.05 |  | 
35 | CNc1nc(Nc2cc(C)cc(C)c2)nn2c(C(N)=O)cnc12 [Example 69] | 5.44 | 0.42 | 0.15 |  |  |  | 
36 | N#Cc1cc(Nc2cc(NC3CC3)c3ncc(C(=O)NCCO)n3n2)cc(C(F)(F)F)c1 [Example 35] | 160 | 8.07 | 8.48 |  |  |  | 

Row | Structure (SMILES) | EC50 [1] [nM] | IC50 [2, 4] [µM] | IC50 [3, 5] [µM] | IC50 [2, 6] [µM] | IC50 [3, 7] [µM] | IC50 [3, 8] [µM] | IC50 [2, 9] [µM]
37 | CNc1cc(Nc2cccnc2OC)nn2c(C(=O)NCCF)cnc12 [Example 26] | 2.93 | 0.09 | 0.06 |  |  |  | 
38 | CCNC(=O)c1ncccc1Nc1cc(NC)c2ncc(C(=O)NC3CC3)n2n1 [Example 103] | 160 |  |  |  |  | 0.36 | 0.47
39 | Cc1cc(C)cc(Nc2cc(Nc3cccnc3)c3ncc(C(N)=O)n3n2)c1 [Example 64] | 70 | 12.5 | 12.5 |  |  |  | 
40 | CNc1cc(Nc2cccnc2-n2cccn2)nn2c(C(=O)NC3CCCC3O)cnc12 (stereo not shown) [Example 28] | 60 | 0.33 | 0.45 |  |  |  | 
41 | CNc1cc(Nc2cccnc2OC)nn2c(C(=O)NC3CCC3)cnc12 [Example 27] | 2.7 |  |  | 0.04 | 0.01 |  | 
42 | CNc1cc(Nc2cccnc2-n2cccn2)nn2c(C(=O)NC3CC3)cnc12 [Example 92] | 30 |  |  | 0.4 | 0.21 |  | 
43 | CNc1cc(Nc2cccc(N3CCCC3=O)n2)nn2c(C(=O)NC3CC3)cnc12 [Example 88] | 8.34 | 0.01 | 0.02 |  |  |  | 
44 | CNc1cc(N(C)c2ccccc2)nn2c(C(=O)NC3CC3)cnc12 [Example 76] | 50 |  |  | 3.55 | 2.79 |  | 
45 | CNc1cc(Nc2cccnc2-n2ccc(C(F)(F)F)n2)nn2c(C(=O)NC3CC3)cnc12 [Example 99] | 570 |  |  |  |  |  | 
46 | CNc1cc(Nc2cccc(N3CCC(O)C3=O)n2)nn2c(C(=O)NC3CC3)cnc12 (stereo not shown) [Example 90] | 3.9 | 0.7 | 0.14 |  |  |  | 
47 | CNc1cc(Nc2cc(F)cc(F)c2F)nn2c(C(=O)NC3CC3)cnc12 [Example 13] | 2.97 |  |  | 0.05 | 0.03 |  | 
48 | CNc1cc(N2CCc3ccccc32)nn2c(C(=O)NC3CCC3)cnc12 [Example 10] | 7.57 | 0.16 | 0.08 |  |  |  | 
49 | CCNC(=O)c1cnc2c(NC3CC3)cc(Nc3cc(C#N)cc(C(F)(F)F)c3)nn12 [Example 36] | 350 | 3.33 | 12.5 |  |  |  | 
50 | O=C(NC1CCC1)c1cnc2c(NC3CC3)cc(Nc3cc(F)cc(F)c3F)nn12 [Example 44] | 60 | 1.46 | 1.39 |  |  |  | 
51 | CNc1cc(Nc2cccc(OC(F)(F)F)c2)nn2c(C(=O)NC3CCC3)cnc12 [Example 5] | 7.29 |  |  | 0.5 | 0.5 |  | 
52 | Cc1cc(C)cc(Nc2cc(Nc3cncs3)c3ncc(C(N)=O)n3n2)c1 [Example 61] | 50 | 2.63 | 1.94 |  |  |  | 
53 | CNc1cc(Nc2cccnc2-n2cccn2)nn2c(C(=O)NCCO)cnc12 [Example 30] | 20 | 0.35 | 0.21 |  |  |  | 
54 | CNc1cc(Nc2cccnc2C(=O)NCCOC)nn2c(C(=O)NC3CC3)cnc12 [Example 108] | 7.59 |  |  |  |  |  | 
